The results in this text go back to PMC8123555, “Precision targeting of the plasminogen activator inhibitor‐1 mechanism increases efficacy of fibrinolytic therapy in empyema” (Physiological Reports, 2021).

The test system of this test is Streptococcus pneumoniae induced empyema. Nature of the test: Fibrinolytic therapy of S. pneumoniae induced empyema in rabbits (GLIS, pleural thickening, WBC differential). The test is classed as in vivo, rabbit. The procedure:
All animal procedures were approved by the Institutional Animal Care and Use Committee at The University of Texas Health Science Center at Tyler (IACUC protocols 499,616,617). Studies used female, pathogen‐free New Zealand white rabbits (3.0–3.6 kg; average age 18 weeks) from Charles River Laboratories (Wilmington, MA). These studies required a total of 107 rabbits, 43 for the model of TCN‐induced pleural injury and 64 for the model of empyema. […] Briefly, a 3 ml mixture of TCN in ascorbic acid (20 mg/ml TCN (T3258, Sigma‐Aldrich), 2.5 mg/ml ascorbic acid (A7506, Sigma‐Aldrich) and lidocaine (1 mg/ml, UTHCT Compounding Pharmacy), was delivered by intrapleural injection. A model of acute empyema in rabbits was induced as described previously (Komissarov et al., 2016). Briefly, 1–5 × 10^8 cfu of S. pneumoniae (D39 strain, National Collection of Type Cultures, Salisbury UK) in 3 ml of 0.5% brain‐heart infusion agar (BD 238400, BD Diagnostic Systems) was delivered by intrapleural injection. Clavomox (10 mg/kg, subcutaneous, daily for 1–3 days as clinically indicated by Attending Veterinarian) (10000485, Zoetis) was started at 28–30 h post‐infection. Accumulation of pleural fluid and fibrin deposition was monitored using ultrasonography; detailed in the ultrasonography subsection. After 48 or 72 h for TCN‐induced pleural injury and empyema, respectively, intrapleural therapeutics were administered depending on treatment group via an 18‐gauge catheter, which was flushed with 0.5 ml PBS. In all experiments, samples of pleural fluids (0.5 ml) from each rabbit were collected prior to and at 10, 20, and 40 min after PAI‐1‐TFT and processed for later analysis (Florova et al., 2015; Karandashova et al., 2013; Komissarov et al., 2013, 2016). Anesthesia, postoperative pain medication, and animal care were provided as reported previously (Florova et al., 2015; Karandashova et al., 2013; Komissarov et al., 2013, 2016). with details provided in the supplement. Animals were monitored carefully for signs of distress, pain, and worsening clinical status. Euthanasia was accomplished using intravenous injection of 1 ml of commercial euthanasia solution (sodium pentobarbital 390 mg/ml and phenytoin 50 mg/ml) followed by exsanguination.
Development of pleural injury was monitored via ultrasonography. Briefly, B‐mode ultrasonography of the chest was performed (Komissarov et al., 2013, 2015) using a Logiq e system (GE Healthcare, Milwaukee, WI) using R5.2.x software and a multifrequency transducer model 12L‐RS at a working frequency of 10 MHz, as previously described (Komissarov et al., 2016).
For each animal, gross lung injury scores (GLIS) were calculated as previously described (Florova et al., 2015; Karandashova et al., 2013; Komissarov et al., 2013). PAI‐1‐TFT was considered successful when GLIS ≤10. Multiple fibrin webs or sheets connecting the visceral and parietal pleura or “too numerous to count” (TNTC) strands and a fibrinous lung coating correlated with a GLIS = 50. Pleural thickening was measured using morphometry, as previously described (Komissarov et al., 2016).

The mark [1] stands for this setting: plasminogen activator 0.5 mg/kg alone, empyema.

Turning to Alteplase [sctPA, reference compound], the “Outcome of fibrinolytic therapy (GLIS)” value under setting [1] is recorded as “ineffective” and the “Outcome of fibrinolytic therapy (GLIS)” value (sctPA 0.25 mg/kg alone, acute empyema) is “ineffective”. For the same substance, the “GLIS of representative animal” value (sctPA 0.25 mg/kg alone, photograph 24 h after treatment) worked out at 50. Moreover, the “Minimal effective dose (MED) of sctPA with DSP” value (with 8.0 mg/kg DSP, acute empyema) is listed as 0.25 mg/kg.

For Prourokinase [scuPA], the “Outcome of fibrinolytic therapy (GLIS)” value under setting [1] is on record as “ineffective”.
